Structures are written as SMILES. The source made the active and inactive calls. The rule behind the calls is not given here.

Test [1] concerns Cladosporium cladosporioides. Kind of test: Antifungal activity against Cladosporium cladosporioides NBRC 6348 assessed as diameter of mycelial growth at 5 ug/cm'2 at 25.5 degC after 20 days. In kind it is functional.
The subject of test [2] is Fomitopsis palustris. The test is described as follows: Antifungal activity against Fomitopsis palustris NBRC 30339 assessed as mycelial growth inhibition at 5 ug/cm2 at 25.5 degC after 14 days. Format: functional.
Test [3] relates to Reticulitermes speratus. Kind of test: Antifeedant activity against Reticulitermes speratus in compound pretreated paper disks assessed as mass loss of the paper disk at 3% measured after 14 days (reference value: 7.67 mg). Format: functional.
In test [4] the test system is Reticulitermes speratus. The test is described as follows: Antitermite activity against Reticulitermes speratus in compound pretreated paper disks assessed as mortality at 3% measured after 14 days. In kind it is functional.
Test [5] has as its system Fomitopsis palustris. Kind of test: Antifungal activity against Fomitopsis palustris NBRC 30339 assessed as diameter of mycelial growth at 5 ug/cm'2 at 25.5 degC after 14 days. Format: functional.
Test [6] concerns Reticulitermes speratus. Kind of test: Ratio of antifeedant activity for compound to antifeedant activity for latifolin against Reticulitermes speratus at 3% measured after 14 days. Format: functional.
The subject of test [7] is Reticulitermes speratus. The test is described as follows: Ratio of antitermite activity for compound to antitermite activity for latifolin against Reticulitermes speratus at 3% measured after 14 days. Format: functional.
Test [8] relates to Trametes versicolor. The test is described as follows: Antifungal activity against Trametes versicolor NBRC 30340 assessed as diameter of mycelial growth at 5 ug/cm'2 at 25.5 degC after 5 days. In kind it is functional.
Another test relates to Rhizopus arrhizus. The test is described as follows: Antifungal activity against Rhizopus oryzae NBRC 31005 assessed as mycelial growth inhibition at 5 ug/cm'2 at 25.5 degC after 36 hr. Format: functional, organism-based.
Test [9] deals with Trametes versicolor. The test is described as follows: Antifungal activity against Trametes versicolor NBRC 30340 assessed as mycelial growth inhibition at 5 ug/cm'2 at 25.5 degC after 5 days. In kind it is functional.

For the compound `C=C[C@H](c1ccccc1OC)c1cc(O)c(OC)cc1OC` [2'-O-METHYLLATIFOLIN], the Activity in [1] amounted to 30 mm; in the test with Reticulitermes speratus [3], 0.82 mg; with Fomitopsis palustris [5], 42.5 mm; with Trametes versicolor [8], 60 mm. In addition, the “inhibition (INH)” value with Fomitopsis palustris [2] stood at 18.3%; in the test on Trametes versicolor [9], 16.5%. Also, in the test with Reticulitermes speratus [4], the mortality is recorded as 46.7%. Moreover, the values for the Ratio with Reticulitermes speratus [6] and in the test on Reticulitermes speratus [7] were 1.98 and 1.75, respectively. Moreover, the inhibition entry in the test on Rhizopus arrhizus was “inactive”.
Regarding `C=C[C@H](c1ccccc1O)c1cc(OC)c(OC)cc1OC` [5-O-METHYLLATIFOLIN], the Activity is 29.2 mm in test [1], 1.29 mg with Reticulitermes speratus [3], 52.3 mm with Fomitopsis palustris [5] and 62.3 mm in the test with Trametes versicolor [8]. For the same compound, the “inhibition (INH)” value in the test with Fomitopsis palustris [2] is given as -0.5%; with Trametes versicolor [9], 13.2%. Moreover, in the test with Reticulitermes speratus [4], the mortality turned out to be 30%. Besides, the Ratio in the test with Reticulitermes speratus [6] turned out to be 3.25; in the test on Reticulitermes speratus [7] it was 1.13. In addition, the inhibition result in the test on Rhizopus arrhizus is “inactive”.
Consider `C=C[C@@H](c1cc(OC(C)=O)c(OC)cc1OC)c1ccccc1OC(C)=O` [LATIFOLIN DIACETATE], for which the Activity in test [1] is 28.7 mm; with Reticulitermes speratus [3], 1.13 mg; with Fomitopsis palustris [5] it was 51.3 mm; in the test with Trametes versicolor [8] it was 56.2 mm. Also, the figures for the “inhibition (INH)” value in the test with Fomitopsis palustris [2] and in the test with Trametes versicolor [9] were 1.4% and 21.8%, respectively. Moreover, in the test on Reticulitermes speratus [4], the mortality is on record as 53.3%. The figures for the Ratio in the test on Reticulitermes speratus [6] and in the test with Reticulitermes speratus [7] were 2.89 and 2, respectively. Besides, the inhibition result in the test on Rhizopus arrhizus is “inactive”.
Turning to `C=C[C@H](c1ccccc1OC)c1cc(OC)c(OC)cc1OC` [LATIFOLIN DIMETHYL ETHER], the Activity is listed as 29.3 mm in test [1], 1.27 mg with Reticulitermes speratus [3], 57 mm in the test on Fomitopsis palustris [5] and 60.8 mm with Trametes versicolor [8]. For the same compound, the “inhibition (INH)” value in the test on Fomitopsis palustris [2] is given as -9.6%; in the test with Trametes versicolor [9], 15.3%. For the same compound, the mortality in the test on Reticulitermes speratus [4] turned out to be 56.7%. Also, the Ratio in the test with Reticulitermes speratus [6] is listed as 3.42; with Reticulitermes speratus [7], 2.13. Moreover, the inhibition entry in the test with Rhizopus arrhizus was “inactive”.
Consider `C=C[C@H](c1ccccc1O)c1cc(O)c(OC)cc1OC` [LATIFOLIN], for which the Activity in test [1] is listed as 26.2 mm; in the test with Reticulitermes speratus [3], 0.39 mg; with Fomitopsis palustris [5] it was 32.5 mm; in the test on Trametes versicolor [8], 15 mm. Further, the “inhibition (INH)” value with Fomitopsis palustris [2] is listed as 37.5%; with Trametes versicolor [9], 79.1%. Besides, the mortality in the test with Reticulitermes speratus [4] worked out at 26.7%. Further, in the test on Rhizopus arrhizus, the inhibition result was “inactive”.

Usually mortality stands for the percentage killed.

The record behind these values is ChEMBL document CHEMBL3044595, “Bioactivity of latifolin and its derivatives against termites and fungi” (2009).
